Reference: ChEMBL document CHEMBL4308908, “Lamellarin-inspired potent topoisomerase I inhibitors with the unprecedented benzo[g][1]benzopyrano[4,3-b]indol-6(13H)-one scaffold” (Bioorg Med Chem, 2019)
Active and inactive are the calls of the source. The calls are words filed in the database; no cut-off is given here.

Columns and labels:
[1] = system: ACHN; assay: Antiproliferative activity against human ACHN cells after 48 hrs by SRB assay; type: functional
[2] = system: DU-145; assay: Antiproliferative activity against human DU145 cells after 48 hrs by SRB assay; type: functional; conditions: DU-145, 48 h
[3] = system: RXF 631; assay: Antiproliferative activity against human RXF631L cells after 48 hrs by SRB assay; type: functional; conditions: RXF 631, 48 h
[4] = system: NCI-H460; assay: Antiproliferative activity against human NCI-H460 cells after 48 hrs by SRB assay; type: functional; conditions: NCI-H460, 48 h
[5] = system: SNB-75; assay: Antiproliferative activity against human SNB75 cells after 48 hrs by SRB assay; type: functional; conditions: SNB-75, 48 h
[6] = system: DMS-114; assay: Antiproliferative activity against human DMS114 cells after 48 hrs by SRB assay; type: functional; conditions: DMS-114, 48 h
[7] = system: SK-OV-3; assay: Antiproliferative activity against human SKOV3 cells after 48 hrs by SRB assay; type: functional; conditions: SK-OV-3, 48 h
[8] = system: SF-539; assay: Antiproliferative activity against human SF539 cells after 48 hrs by SRB assay; type: functional; conditions: SF-539, 48 h
[9] = Antiproliferative activity against human HBC5 cells after 48 hrs by SRB assay; type: functional; conditions: HBC5, 48 h
[10] = system: DMS-273; assay: Antiproliferative activity against human DMS273 cells after 48 hrs by SRB assay; type: functional; conditions: DMS-273, 48 h
[11] = system: MCF7; assay: Antiproliferative activity against human MCF7 cells after 48 hrs by SRB assay; type: functional; conditions: MCF7, 48 h
[12] = system: U-251; assay: Antiproliferative activity against human U251 cells after 48 hrs by SRB assay; type: functional; conditions: U-251, 48 h
[13] = system: MKN-45; assay: Antiproliferative activity against human MKN45 cells after 48 hrs by SRB assay; type: functional; conditions: MKN-45, 48 h
[14] = system: OVCAR-5; assay: Antiproliferative activity against human OVCAR5 cells after 48 hrs by SRB assay; type: functional; conditions: OVCAR-5, 48 h
[15] = system: HT-29; assay: Antiproliferative activity against human HT-29 cells after 48 hrs by SRB assay; type: functional; conditions: HT-29, 48 h
[16] = system: MKN-28; assay: Antiproliferative activity against human MKN28 cells after 48 hrs by SRB assay; type: functional; conditions: MKN-28, 48 h
[17] = Antiproliferative activity against human HBC4 cells after 48 hrs by SRB assay; type: functional; conditions: HBC4, 48 h
[18] = system: LOX IMVI; assay: Antiproliferative activity against human LOXIMVI cells after 48 hrs by SRB assay; type: functional
[19] = system: KM12; assay: Antiproliferative activity against human KM12 cells after 48 hrs by SRB assay; type: functional; conditions: KM12, 48 h
[20] = system: OVCAR-4; assay: Antiproliferative activity against human OVCAR4 cells after 48 hrs by SRB assay; type: functional; conditions: OVCAR-4, 48 h
[21] = system: HCT-116; assay: Antiproliferative activity against human HCT116 cells after 48 hrs by SRB assay; type: functional; conditions: HCT-116, 48 h
[22] = system: NCI-H23; assay: Antiproliferative activity against human NCI-H23 cells after 48 hrs by SRB assay; type: functional; conditions: NCI-H23, 48 h
[23] = system: NCI-H226; assay: Antiproliferative activity against human NCI-H226 cells after 48 hrs by SRB assay; type: functional; conditions: NCI-H226, 48 h
[24] = system: MKN-7; assay: Antiproliferative activity against human MKN7 cells after 48 hrs by SRB assay; type: functional; conditions: MKN-7, 48 h
[25] = system: HCC 2998; assay: Antiproliferative activity against human HCC2998 cells after 48 hrs by SRB assay; type: functional; conditions: HCC 2998, 48 h
[26] = molecular target: T1, DNA topoisomerase I (Bos taurus) (UniProt F1MN93); assay: Inhibition of calf thymus DNA topoisomerase 1 assessed as reduction in enzyme-mediated relaxation of supercoiled pBR322 plasmid DNA at 10 uM after 30 mins by ethidium bromide staining-based agarose gel electrophoresis
T1 sequence (whole entry): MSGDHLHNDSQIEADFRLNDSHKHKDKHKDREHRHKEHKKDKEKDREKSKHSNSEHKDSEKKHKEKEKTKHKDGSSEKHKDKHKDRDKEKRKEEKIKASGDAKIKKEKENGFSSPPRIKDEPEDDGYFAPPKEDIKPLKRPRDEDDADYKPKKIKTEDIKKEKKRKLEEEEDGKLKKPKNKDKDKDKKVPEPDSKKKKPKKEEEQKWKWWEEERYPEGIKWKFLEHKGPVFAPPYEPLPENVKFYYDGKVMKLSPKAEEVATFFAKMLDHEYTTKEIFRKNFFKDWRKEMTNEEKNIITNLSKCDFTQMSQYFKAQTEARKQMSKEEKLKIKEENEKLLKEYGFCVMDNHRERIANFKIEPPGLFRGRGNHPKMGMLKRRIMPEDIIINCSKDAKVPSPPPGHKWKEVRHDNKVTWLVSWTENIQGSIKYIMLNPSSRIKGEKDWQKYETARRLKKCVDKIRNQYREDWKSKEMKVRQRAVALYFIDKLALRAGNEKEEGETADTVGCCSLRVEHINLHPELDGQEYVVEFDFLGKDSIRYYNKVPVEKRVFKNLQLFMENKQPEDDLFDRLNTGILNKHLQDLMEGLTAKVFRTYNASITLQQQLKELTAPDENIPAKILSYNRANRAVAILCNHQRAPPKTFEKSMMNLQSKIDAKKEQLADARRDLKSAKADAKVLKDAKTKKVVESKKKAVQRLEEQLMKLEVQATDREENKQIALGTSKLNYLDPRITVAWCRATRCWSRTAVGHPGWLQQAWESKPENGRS

[27] = system: Colon 26; assay: Antitumor activity against mouse Colon 26 cells implanted in BALB/c mouse at 50 mg/kg, iv administered every 2 days for 7 times starting 1 day after tumor implantation and measured daily until day 20; type: functional, organism-based
[28] = system: St-4; assay: Antiproliferative activity against human St-4 cells after 48 hrs by SRB assay; type: functional; conditions: St-4, 48 h
[29] = system: MKN-74; assay: Antiproliferative activity against human MKN74 cells after 48 hrs by SRB assay; type: functional; conditions: MKN-74, 48 h
[30] = system: MKN-1; assay: Antiproliferative activity against human MKN1 cells after 48 hrs by SRB assay; type: functional; conditions: MKN-1, 48 h
[31] = Toxicity in mouse Colon 26 cells implanted BALB/c mouse assessed as induction of body weight loss at 50 mg/kg, iv administered every 2 days for 7 times starting 1 day after tumor implantation and measured daily until day 20; type: organism-based; conditions: in vivo
[32] = system: PC-3; assay: Antiproliferative activity against human PC3 cells after 48 hrs by SRB assay; type: functional; conditions: PC-3, 48 h
[33] = system: SF-295; assay: Antiproliferative activity against human SF295 cells after 48 hrs by SRB assay; type: functional; conditions: SF-295, 48 h
[34] = system: OVCAR-8; assay: Antiproliferative activity against human OVCAR8 cells after 48 hrs by SRB assay; type: functional; conditions: OVCAR-8, 48 h

COc1cc2c(ccc3c4c(=O)oc5cc(OC(=O)[C@@H](N)C(C)C)c(OC)cc5c4n(C)c23)cc1OC(=O)[C@@H](N)C(C)C.O=C(O)C(F)(F)F.O=C(O)C(F)(F)F showed a GI50 ([1]; read-out: GI50) of 2.9 nM, a GI50 ([1]; read-out: pGI50 (converted)) of 2.88 nM and a GI50 ([2]; read-out: GI50) of 3.2 nM. It also gave a GI50 ([2]; read-out: pGI50 (converted)) of 3.16 nM, a GI50 [3] of 1000 nM and a GI50 [4] of 4.37 nM. The GI50 [5] was 8.32 nM, the GI50 [6] was 4.37 nM and the GI50 ([7]; read-out: GI50) was 20 nM. The GI50 ([7]; read-out: pGI50 (converted)) was 19.9 nM, the GI50 [8] was 4.17 nM and the GI50 [9] was 138 nM. For the same molecule, the GI50 [10] was 4.27 nM, the GI50 ([11]; read-out: GI50) was 6.1 nM and the GI50 ([11]; read-out: pGI50 (converted)) was 6.17 nM. For the same molecule, the GI50 ([12]; read-out: GI50) was 3.4 nM, the GI50 ([12]; read-out: pGI50 (converted)) was 3.39 nM and the GI50 [13] was 105 nM. The GI50 [14] was 45.7 nM, the GI50 [15] was 955 nM and the GI50 ([16]; read-out: GI50) was 41 nM. For the same molecule, the GI50 ([16]; read-out: pGI50 (converted)) was 40.7 nM, the GI50 [17] was 10 nM and the GI50 ([18]; read-out: GI50) was 2.5 nM. It also gave a GI50 ([18]; read-out: pGI50 (converted)) of 2.51 nM, a GI50 [19] of 57.5 nM and a GI50 [20] of 36.3 nM. It also gave a GI50 ([21]; read-out: GI50) of 15 nM, a GI50 ([21]; read-out: pGI50 (converted)) of 15.5 nM and a GI50 [22] of 4.9 nM. For the same molecule, the GI50 [23] was 89.1 nM, the GI50 [24] was 52.5 nM and the GI50 [25] was 91.2 nM. The inhibition [26] was “Active”, the Activity [27] was “Active” and the GI50 [28] was 1000 nM. The GI50 [29] was 75.9 nM, the GI50 [30] was 44.7 nM and the Activity [31] was “Non-Toxic”. For the same molecule, the GI50 [32] was 70.8 nM, the GI50 [33] was 12.9 nM and the GI50 [34] was 13.5 nM.
